From patent US11041000B2, “Peptide inhibitors of interleukin-23 receptor and their use to treat inflammatory diseases” (priority 2019, dated 2021)
Numbered stars: 1 amine (or outer) side, 2 acyl side, 3 side chain; on linkers, the order of the positions; unused ones are H or OH. Bridge positions count the residues as written; N and C are the ends. Square brackets hold non-standard residues; d marks the D form. Peptide text beside a SMILES is read from it. Trp(7-Me) = Cc1cccc2c(C[C@H](N)C(=O)O)c[nH]c12; Abu(4-yl) = O=C([C@H](CC[*:3])N[*:1])[*:2]; 2Nal = N[C@@H](Cc1ccc2ccccc2c1)C(=O)O; AEF = NCCOc1ccc(C[C@H](N)C(=O)O)cc1; Cit = NC(=O)NCCC[C@H](N)C(=O)O; Pen = CC(C)(S)[C@H](N)C(=O)O; αMeK = C[C@](N)(CCCCN)C(=O)O; Aib = CC(C)(N)C(=O)O; Sar = CNCC(=O)O

What was measured:
Assay type in all cases: in vitro ADME
[1] = Stability in simulated intestinal fluid (SIF); details: simulated intestinal fluid with pancreatin, pH 6.8, 37° C., matrix is 100 fold dilution of standard SIF concentration; for half-life at 20 μM: read-out: SIF t½ (converted); for SIF t½: 20 μM
[2] = Stability in human fecal homogenate; details: 20% fecal homogenate (supernatant), pH 6.8, 20% human fecal homogenate, anaerobic, 37° C., read-out: t½: Human Feces anaerobic (converted)
Procedure: (§1) Centrifuged the homogenate at 2800×g for 15 min. The supernatant is taken out and used for incubations. […] The final test compound concentration was 20 μM.

[3] = Stability in cynomolgus monkey fecal homogenate; details: 20% fecal homogenate (supernatant), pH 6.8, 20% cynomolgus monkey fecal homogenate, anaerobic, 37° C., read-out: t½: Monkey Feces anaerobic (converted)
Procedure: as §1

[4] = Stability in rat plasma; details: both sexes, SD rat plasma, EDTA, 37° C., read-out: t½: Rat Plasma EDTA (converted)

Row | half-life at 20 μM [1] [h] | half-life at 20 μM [2] [h] | half-life at 20 μM [3] [h] | half-life at 20 μM [4] [h] | SIF t½ [1] [h] | Compound
1 | 10 | > 24 | > 24 | > 24 | – | CC(=O)NCCCC[C@@H]1NC(=O)[C@H](Cc2c[nH]c3c(C)cccc23)NC(=O)[C@H]([C@@H](C)O)NC(=O)[C@H](CC(N)=O)NC(=O)[C@@H](NC(C)=O)C(C)(C)SSC(C)(C)[C@@H](C(=O)N[C@@H](Cc2ccc(OCCN)cc2)C(=O)N[C@@H](Cc2ccc3ccccc3c2)C(=O)N[C@@](C)(CCCCN)C(=O)N[C@@H](CCCCNC(=O)CC(C)C)C(=O)N[C@@H](CC(N)=O)C(=O)N[C@H](CC(C)C)C(N)=O)NC1=O [compound 356]
2 | 10 | > 24 | > 24 | > 24 | – | CC(=O)NCCCC[C@@H]1NC(=O)[C@H](Cc2c[nH]c3c(C)cccc23)NC(=O)[C@H]([C@@H](C)O)NC(=O)[C@H](CCCNC(=N)N)NC(=O)[C@@H](NC(C)=O)C(C)(C)SSC(C)(C)[C@@H](C(=O)N[C@@H](Cc2ccc(OCCN)cc2)C(=O)N[C@@H](Cc2ccc3ccccc3c2)C(=O)N[C@@](C)(CCCCN)C(=O)N[C@@H](CCCCNC(C)=O)C(=O)N[C@@H](CC(N)=O)C(=O)N[C@H](CC(C)C)C(N)=O)NC1=O [compound 336] (Ac-[Pen]RT[Trp(7-Me)]K(Ac)[Pen][AEF][2Nal][αMeK]K(Ac)N[dL]-NH2; disulfide 1-6)
3 | – | > 24 | 18 | > 24 | 24 | CC(=O)NCCCC[C@H](NC(=O)[C@](C)(CCCCN)NC(=O)[C@H](Cc1ccc2ccccc2c1)NC(=O)[C@H](Cc1ccc(OCCN)cc1)NC(=O)[C@H]1NC(=O)[C@H](CCCNC(N)=O)NC(=O)[C@H](Cc2c[nH]c3c(C)cccc23)NC(=O)[C@H]([C@@H](C)O)NC(=O)[C@H](CC(N)=O)NC(=O)[C@@H](NC(C)=O)C(C)(C)SSC1(C)C)C(=O)N[C@@H](CC(N)=O)C(=O)N(C)CC(N)=O [compound 339] (Ac-[Pen]NT[Trp(7-Me)][Cit][Pen][AEF][2Nal][αMeK]K(Ac)N[Sar]-NH2; disulfide 1-6)
4 | 22 | > 24 | 24 | > 24 | – | CC(=O)NCCCC[C@@H]1NC(=O)[C@H](Cc2c[nH]c3c(C)cccc23)NC(=O)[C@H]([C@@H](C)O)NC(=O)[C@@H]2CCCN2C(=O)[C@@H](NC(C)=O)C(C)(C)SSC(C)(C)[C@@H](C(=O)N[C@@H](Cc2ccc(OCCN)cc2)C(=O)N[C@@H](Cc2ccc3ccccc3c2)C(=O)N[C@@](C)(CCCCN)C(=O)N[C@@H](CCCCNC(C)=O)C(=O)N[C@@H](CC(N)=O)C(=O)N[C@H](CC(C)C)C(N)=O)NC1=O [compound 333] (Ac-[Pen]PT[Trp(7-Me)]K(Ac)[Pen][AEF][2Nal][αMeK]K(Ac)N[dL]-NH2; disulfide 1-6)
5 | 11 | > 24 | > 24 | 7 | – | CC(=O)NCCCC[C@@H]1NC(=O)[C@H](Cc2c[nH]c3c(C)cccc23)NC(=O)[C@H]([C@@H](C)O)NC(=O)[C@H](CC(N)=O)NC(=O)[C@@H](NC(C)=O)C(C)(C)SSC(C)(C)[C@@H](C(=O)N[C@@H](Cc2ccc(OCCN)cc2)C(=O)N[C@@H](Cc2ccc3ccccc3c2)C(=O)N[C@@](C)(CC(C)C)C(=O)N[C@@H](CCCCNC(C)=O)C(=O)N[C@@H](CC(N)=O)C(=O)N[C@H](CC(N)=O)C(N)=O)NC1=O [compound 354]
6 | 17 | > 24 | > 24 | > 24 | – | CC(=O)NCCCC[C@H](NC(=O)[C@](C)(CCCCN)NC(=O)[C@H](Cc1ccc2ccccc2c1)NC(=O)[C@H](Cc1ccc(OCCN)cc1)NC(=O)[C@H]1NC(=O)[C@H](CCCNC(N)=O)NC(=O)[C@H](Cc2c[nH]c3c(C)cccc23)NC(=O)[C@H]([C@@H](C)O)NC(=O)[C@H](CC(N)=O)NC(=O)[C@@H](NC(C)=O)C(C)(C)SSC1(C)C)C(=O)N[C@@H](CC(N)=O)C(=O)NC(C)(C)C(=O)NCC(N)=O [compound 341] (Ac-[Pen]NT[Trp(7-Me)][Cit][Pen][AEF][2Nal][αMeK]K(Ac)N[Aib]G-NH2; disulfide 1-6)
7 | 12 | > 24 | > 24 | > 24 | – | CC(=O)NCCCC[C@H](NC(=O)[C@](C)(CCCCN)NC(=O)[C@H](Cc1ccc2ccccc2c1)NC(=O)[C@H](Cc1ccc(OCCN)cc1)NC(=O)[C@H]1NC(=O)[C@H](CCCNC(N)=O)NC(=O)[C@H](Cc2c[nH]c3c(C)cccc23)NC(=O)[C@H]([C@@H](C)O)NC(=O)[C@H](CC(N)=O)NC(=O)[C@@H](NC(C)=O)C(C)(C)SSC1(C)C)C(=O)N[C@@H](CC(N)=O)C(=O)NC(C)(C)C(=O)N[C@H](Cc1ccc(O)cc1)C(N)=O [compound 347] (Ac-[Pen]NT[Trp(7-Me)][Cit][Pen][AEF][2Nal][αMeK]K(Ac)N[Aib][dY]-NH2; disulfide 1-6)
8 | 21 | > 24 | 15 | > 24 | – | CC(=O)NCCCC[C@H](NC(=O)[C@](C)(CCCCN)NC(=O)[C@H](Cc1ccc2ccccc2c1)NC(=O)[C@H](Cc1ccc(OCCN)cc1)NC(=O)[C@H]1NC(=O)[C@H](CCCCNC(=O)CN)NC(=O)[C@H](Cc2c[nH]c3c(C)cccc23)NC(=O)[C@H]([C@@H](C)O)NC(=O)[C@H](CC(N)=O)NC(=O)[C@@H](NC(C)=O)C(C)(C)SSC1(C)C)C(=O)N[C@@H](CC(N)=O)C(=O)N[C@H](CC(C)C)C(N)=O [compound 320]
9 | 20 | > 24 | 13 | > 24 | – | CC(=O)NCCCC[C@@H]1NC(=O)[C@H](Cc2c[nH]c3c(C)cccc23)NC(=O)[C@H]([C@@H](C)O)NC(=O)[C@H](CCC(N)=O)NC(=O)[C@@H](NC(=O)[C@@H](CCCNC(=N)N)NC(C)=O)CCSC[C@@H](C(=O)N[C@@H](Cc2ccc(OCCN)cc2)C(=O)N[C@@H](Cc2ccc3ccccc3c2)C(=O)N[C@@](C)(CCCCN)C(=O)N[C@@H](CCCCNC(C)=O)C(=O)N[C@@H](CC(N)=O)C(=O)N[C@H](CCCCN)C(=O)N(C)CC(N)=O)NC1=O [compound 323] (Ac-[dR][Abu(4-yl)]QT[Trp(7-Me)]K(Ac)C[AEF][2Nal][αMeK]K(Ac)N[dK][Sar]-NH2; thioether 2-7)
10 | 8 | 12 | > 24 | > 24 | – | CC(=O)NCCCC[C@@H]1NC(=O)[C@H](Cc2c[nH]c3c(C)cccc23)NC(=O)[C@H]([C@@H](C)O)NC(=O)[C@H](CC(N)=O)NC(=O)[C@@H](NC(C)=O)C(C)(C)SSC(C)(C)[C@@H](C(=O)N[C@@H](Cc2ccc(OCCN)cc2)C(=O)N[C@@H](Cc2ccc3ccccc3c2)C(=O)N[C@@](C)(CCCCN)C(=O)N[C@@H](CCCCNC(=O)[C@H](C)N)C(=O)N[C@@H](CC(N)=O)C(=O)N[C@H](CC(C)C)C(N)=O)NC1=O [compound 355]
11 | 19 | > 24 | > 24 | 24 | – | CC(=O)NCCCC[C@H](NC(=O)[C@](C)(CCCCN)NC(=O)[C@H](Cc1ccc2ccccc2c1)NC(=O)[C@H](Cc1ccc(OCCN)cc1)NC(=O)[C@H]1NC(=O)[C@H](CCCNC(N)=O)NC(=O)[C@H](Cc2c[nH]c3c(C)cccc23)NC(=O)[C@H]([C@@H](C)O)NC(=O)[C@H](CC(N)=O)NC(=O)[C@@H](NC(C)=O)C(C)(C)SSC1(C)C)C(=O)N[C@@H](CC(N)=O)C(=O)NC(C)(C)C(=O)N[C@H](Cc1ccccc1)C(N)=O [compound 346] (Ac-[Pen]NT[Trp(7-Me)][Cit][Pen][AEF][2Nal][αMeK]K(Ac)N[Aib][dF]-NH2; disulfide 1-6)
12 | – | > 24 | > 24 | > 24 | 24 | CC(=O)NCCCC[C@@H]1NC(=O)[C@H](Cc2c[nH]c3c(C)cccc23)NC(=O)[C@H]([C@@H](C)O)NC(=O)[C@H](CO)NC(=O)[C@@H](NC(C)=O)C(C)(C)SSC(C)(C)[C@@H](C(=O)N[C@@H](Cc2ccc(OCCN)cc2)C(=O)N[C@@H](Cc2ccc3ccccc3c2)C(=O)N[C@@](C)(CCCCN)C(=O)N[C@@H](CCCCNC(C)=O)C(=O)N[C@@H](CC(N)=O)C(=O)N[C@H](CC(C)C)C(N)=O)NC1=O [compound 334] (Ac-[Pen]ST[Trp(7-Me)]K(Ac)[Pen][AEF][2Nal][αMeK]K(Ac)N[dL]-NH2; disulfide 1-6)
13 | 13 | > 24 | 13 | > 24 | – | CC(=O)NCCCC[C@@H]1NC(=O)[C@H](Cc2c[nH]c3c(C)cccc23)NC(=O)[C@H]([C@@H](C)O)NC(=O)[C@H](CCC(N)=O)NC(=O)[C@@H](NC(=O)[C@@H](CCCNC(=N)N)NC(C)=O)CCSC[C@@H](C(=O)N[C@@H](Cc2ccc(OCCN)cc2)C(=O)N[C@@H](Cc2ccc3ccccc3c2)C(=O)N[C@@](C)(CCCCN)C(=O)N[C@@H](CCCCNC(C)=O)C(=O)N[C@@H](CC(N)=O)C(=O)N[C@H](CCCCN)C(N)=O)NC1=O [compound 324] (Ac-[dR][Abu(4-yl)]QT[Trp(7-Me)]K(Ac)C[AEF][2Nal][αMeK]K(Ac)N[dK]-NH2; thioether 2-7)

Row | Compound | half-life at 20 μM [1] [h] | half-life at 20 μM [2] [h] | half-life at 20 μM [3] [h] | half-life at 20 μM [4] [h] | SIF t½ [1] [h]
14 | COc1cccc2c(C[C@@H]3NC(=O)[C@H]([C@@H](C)O)NC(=O)[C@H](CC(N)=O)NC(=O)[C@@H](NC(C)=O)C(C)(C)SSC(C)(C)[C@@H](C(=O)N[C@@H](Cc4ccc(OCCN)cc4)C(=O)N[C@@H](Cc4ccc5ccccc5c4)C(=O)N[C@@](C)(CCCCN)C(=O)N[C@@H](CCCCNC(C)=O)C(=O)N[C@@H](CC(N)=O)C(=O)N[C@H](CCCCN)C(N)=O)NC(=O)[C@H](CCCCNC(C)=O)NC3=O)c[nH]c12 [compound 299] | – | > 24 | > 24 | > 24 | 24
